In test [1] the target is T1, mTOR kinase (Homo sapiens, UniProt P42345).
T1 construct: purchased Thermo Fisher PV4753
Description: In vitro inhibitory activity on mTOR kinase (TR-FRET, GFP-4E-BP1 substrate). Format: biochemical. The following applies: for pIC50: 0.5 μg/mL mTOR, 0.4 μM GFP-4E-BP1, 3 μM ATP. As for the experimental part: Preparation of Reaction Buffers:
Basic buffer composition: 50 mM (mmol/L) HEPES (pH 7.5), 1 mM EGTA, 0.01% Tween-20, 10 mM MnCl2, 2 mM DTT (diluted from 500 mM before used).
(2) mTOR kinase buffer solution: 1650 μL of 2.5×mTOR kinase buffer solution was composed of 1640.2 μL of 1× basic buffer and 9.8 μL of mTOR (0.21 mg/mL stock solution), and the final concentration was 0.5 μg/mL.
(3) Detection buffer solution: 3960 μL of 2× detection buffer solution was composed of 3797.1 μL of TR-FRET buffer diluent (purchased from Thermo Fisher, catalog number: PV3574), 4.5 μL of Tb-anti-p4E-BP1 antibody (3.49 μM stock solution, purchased from Thermo Fisher, catalog number: PV4757) and 158 μL of EDTA (500 mM stock solution), and the final concentrations were 2 nM Tb-anti-p4E-BP1 antibody and 10 mM EDTA.
(1) 20 μL of 100% DMSO solution containing 5 mM compound to be tested was added to a 96-well plate.
(2) The compound was serially diluted 3 times in DMSO.
(3) 1 μL of the compound in the previous step was taken, diluted with 19 μL of mTOR kinase buffer, and transferred to another 96-well plate.
(4) 4 μL of mTOR kinase solution (purchased from Thermo Fisher, catalog number: PV4753) was added to a 384-well plate.
(5) 2 μL of the compound in G was taken out and added to the 384-well plate with mTOR kinase, and incubated at room temperature for 15 minutes.
(6) 4 μL of substrate solution was added to initiate the reaction.
The final concentrations of mTOR reaction solution were: 0.5 μg/mL mTOR, 0.4 μM GFP-4E-BP1, 3 μM ATP.
The final concentration of the DMSO solution was 1%.
(7) Incubation was performed for 60 minutes at room temperature.
(8) 10 μL of detection buffer was added. The final concentrations were 2 nM Tb-anti-p4E-BP1 antibody and 10 mM EDTA.
(9) Incubation was performed for 30 minutes at room temperature.
(10) TR-FRET value was read on MD5 multi-mode plate reader (Molecular Devices). The excitation wavelength was 340 nm, the emission wavelength 1 was 495 nm, and the emission wavelength 2 was 520 nm. The ratio of 520 nm/495 nm readings was calculated as TR-FRET value.
IC50 of compound was fitted by nonlinear regression equation:
Y=Bottom+(Top-Bottom)/(1+10^((LogIC50-X)*HillSlope));
X: common logarithm value of compound concentration; Y: TR-FRET value (520 nm/495 nm).
Background: TR-FRET usually uses a lanthanide donor and a delayed reading to cut background.

The target of test [2] is T2, mTORC2 (Homo sapiens, UniProt P42345).
T2 construct: endogenous in cells; host or cells: RD cells
Description: Western blot, phosphorylation of Ser473 of Akt in RD cells (mTORC2 inhibition). In kind it is cell-based. The settings on record: 20 μM, 2 hours, Western blot (FIG. 1). As for the experimental part:
In order to test the inhibitory activity of the synthesized compounds on the two mTOR complexes, the inhibitory activity experiments of mTORC1 and mTORC2 were carried out. Since mTORC1 and mTORC2 exerted their function by activating the phosphorylation of downstream substrates, the inhibitory activity of the compounds on mTORC1 and mTORC2 could be determined by detecting the phosphorylation levels of the Thr389 site of mTORC1 downstream substrate p70S6K1 and the Ser473 site of mTORC2 downstream substrate Akt.
Pretreatment of Compound:
(1) RD cells were cultured in DMEM medium containing 10% FBS and 1×PS (penicillin and streptomycin were at concentrations 100 IU and 100 μg/mL, respectively) at 37° C. and 5% CO2.
(2) The RD cells (5×10^5 cells/2 mL medium) were inoculated into a 6-well plate and incubated at 37° C. and 5% CO2 for 24 hours.
(3) The cells were washed once with PBS, and the cells were cultured in serum-free medium without nutrients overnight.
(4) Formulation of compounds: […]
Preparation of insulin medium: Insulin was diluted in DMEM medium containing 10% FBS and 1×PS so that the final concentration of insulin was 167 nM.
Pretreatment of compound to be tested: The compound was dissolved in DMSO so that the concentration of the test compound was 20 mM, and the compound was diluted in 167 nM insulin medium to reach a concentration of 20 μM.
Preparation of rapamycin solution: Rapamycin was dissolved in DMSO to a concentration of 10 mM, and the rapamycin was diluted in 167 nM insulin medium to reach a concentration of 20 μM.
(5) The serum-free medium in each well was removed.
(6) 2 mL of complete medium containing DMSO was added to each well as a control carrier. The final concentration of DMSO was 0.2%.
(7) 2 mL of 20 μM rapamycin solution and 20 μM the compound to be tested were added to the designated wells, respectively. The final concentration of DMSO was 0.2%.
(8) The cells were incubated for 2 hours at 37° C. and 5% CO2.
Protein extraction and concentration determination:
(1) The cells were washed once with refrigerated PBS, and then the PBS was discarded.
(2) 150 μL of cell extraction buffer (RIPA, […], catalog number: C1053) was transferred into each well to lyse the cells, and then the resulting cell solution were incubated on ice for 30 minutes.
(3) Centrifugation was performed at 14000 rpm (13000× g) for 30 minutes at 4° C.
(4) The supernatant was transferred into a new eppendorf tube, and the cell lysate was stored at −80° C. before testing.
(5) The protein concentration was determined by BCA method.
Preparation of Buffer Solutions:
(1) 100× Protease inhibitor (Beyotime, catalog number: P1005): 1 mL of redistilled water was added to the protease inhibitor and stirred gently until the solid was completely dissolved.
(2) Lysis Buffer: […] of 100× protease inhibitor and 2× phosphatase inhibitor Cocktails PhosSTOP (Beyotime, catalog number: P1082) were added to 100 mL of the cell extract, and stirred gently until it was completely dissolved.
(3) Electrophoresis Running Buffer:
10×MOPS buffer: 52.33 g of MOPS, 30.29 g of Tris base, 10 mL of 0.5 mol/L EDTA (pH 8.5) and 5 g of SDS was dissolved in 400 mL of redistilled water, stirred to dissolve, and the pH was adjusted to 7.5, then redistilled water was added again to reach a volume of 500 mL; 1×MOPS: 100 mL of 10×MOPS was diluted with redistilled water to 1000 mL.
(4) 1× Transfer Buffer: […] of 10× transfer buffer (144 g of glucine, 30.3 g of trisbase, and distilled water were mixed to reach a volume of 1 L) and 400 mL of methanol were dissolved in 1500 mL of redistilled water, and then the redistilled water was added to reach a volume of 2000 mL. […]
(In western blotting, separated proteins are transferred to a membrane and probed.)

Each structure is given as a SMILES string. pIC50: −log10 of the molar value.

As for `CC(=O)/C=C/c1cnc2ccc(-c3ccc(C)nc3)cc2c1Nc1cccc(C(F)(F)F)c1` [HTL-2-38, (E)-6-[3-(6-methyl)pyridyl]-4-[3-(trifluoromethyl)phenyl]aminoquinoline-3-butenone], in test [1], the “inhibitory activity on mTOR kinase, in words” value (“inhibitory activity” for short) was “weak inhibitory activity” and the negative logarithm of the IC50 (pIC50) (as a rule, −log10 of the IC50, conventionally taken in molar units) was 5.99.

`NC(=O)c1ccc(-c2ccc3ncc4oc(=O)n(-c5cccc(C(F)(F)F)c5)c4c3c2)cc1` [HTL-5-21, 8-(4-carbamoyl)phenyl-1-[3-(trifluoromethyl)phenyl]oxazolo[5,4-c]quinolin-2(1H)-one]: in test [1], the “inhibitory activity” value is reported as “better inhibitory activity” and the negative-log IC50 (pIC50) is 7.82. In test [2], the “phosphorylation expression level of Akt” value was “significantly down-regulate”.

For the molecule `Nc1cccc(Nc2ccc3ncc4ccc(=O)n(-c5cccc(C(F)(F)F)c5)c4c3c2)c1` [HTL-6-11, 9-(3-aminophenyl)imino-2-oxo-1-[3-(trifluoromethyl)phenyl]-1,2-dihydrobenzo[h][1,6]naphthyridine], in test [1], the “inhibitory activity” value is recorded as “moderate inhibitory activity” and the negative logarithm of the IC50 (pIC50) was 6.59. Further, the “phosphorylation expression level of Akt” value in test [2] was “significantly down-regulate”.

As for `Nc1cccc(Nc2ccc3ncc4ccc(=O)n(-c5cccc(C(F)(F)F)c5)c4c3c2)n1` [HTL-6-12, 9-[2-(6-aminopyridyl)]imino-2-oxo-1-[3-(trifluoromethyl)phenyl]-1,2-dihydrobenzo[h][1,6]naphthyridine], the pIC50 in test [1] is 7.17. Further, the “phosphorylation expression level of Akt” value in test [2] is recorded as “significantly down-regulate”.

Regarding `NC(=O)/C=C/c1ccc2ncc3oc(=O)n(-c4cccc(C(F)(F)F)c4)c3c2c1` [HTL-6-30, (E)-8-(2-carbamoyl-vinyl)-1-[3-(trifluoromethyl)phenyl]oxazolo[5,4-c]quinolin-2(1H)-one], in test [1], the “inhibitory activity” value was “better inhibitory activity” and the negative-log IC50 (pIC50) was 7.32.

In turn, `CCC(=O)Nc1ccc(-c2ccc3ncc4ccc(=O)n(-c5cccc(C(F)(F)F)c5)c4c3c2)cn1` [HTL-6-45, 9-[3-(6-propionylamino)pyridyl]-2-oxo-1-[3-(trifluoromethyl)phenyl]-1,2-dihydrobenzo[h][1,6]naphthyridine] showed a negative logarithm of the IC50 (pIC50) in test [1] of 7.53. In addition, in test [2], the “phosphorylation expression level of Akt” value was “significantly down-regulate”.

Consider `O=c1ccc2cnc3ccc(-c4ccc5ncccc5c4)cc3c2n1-c1cccc(C(F)(F)F)c1` [HTL-6-47, 9-(6-quinolyl)-2-oxo-1-[3-(trifluoromethyl)phenyl]-1,2-dihydrobenzo[h][1,6]naphthyridine], for which, in test [1], the “inhibitory activity” value is reported as “excellent inhibitory activity” and the pIC50 is 8.21. Also, the “phosphorylation expression level of Akt” value in test [2] is “significantly down-regulate”.

The molecule `O=c1ccc2cnc3ccc(-c4cccnc4F)cc3c2n1-c1cccc(C(F)(F)F)c1` [HTL-6-48, 9-[3-(2-fluoro)pyridyl]-2-oxo-1-[3-(trifluoromethyl)phenyl]-1,2-dihydrobenzo [h][1,6]naphthyridine] had a pIC50 in test [1] of 7.50. Further, in test [2], the “phosphorylation expression level of Akt” value is listed as “significantly down-regulate”.

The molecule `Cc1ncccc1-c1ccc2ncc3ccc(=O)n(-c4cccc(C(F)(F)F)c4)c3c2c1` [HTL-6-49, 9-[3-(2-methyl)pyridyl]-2-oxo-1-[3-(trifluoromethyl)phenyl]-1,2-dihydrobenzo[h][1,6]naphthyridine] showed a pIC50 in test [1] of 7.92. For the same molecule, the “phosphorylation expression level of Akt” value in test [2] is “significantly down-regulate”.

As for `O=c1ccc2cnc3ccc(-c4cc[nH]n4)cc3c2n1-c1cccc(C(F)(F)F)c1` [HTL-6-50, 9-[(1H)-3-pyrazolyl]-2-oxo-1-[3-(trifluoromethyl)phenyl]-1,2-dihydrobenzo[h][1,6]naphthyridine], in test [1], the “inhibitory activity” value is “moderate inhibitory activity” and the pIC50 is 6.80. Further, the “phosphorylation expression level of Akt” value in test [2] is reported as “significantly down-regulate”.

Turning to `O=c1ccc2cnc3ccc(-c4ccc(F)nc4)cc3c2n1-c1cccc(C(F)(F)F)c1` [HTL-7-01, 9-[3-(6-fluoro)pyridyl]-2-oxo-1-[3-(trifluoromethyl)phenyl]-1,2-dihydrobenzo[h][1,6]naphthyridine], the pIC50 in test [1] was 7.54. In addition, the “phosphorylation expression level of Akt” value in test [2] is “significantly down-regulate”.

Regarding `COc1ccc(-c2ccc3ncc4ccc(=O)n(-c5cccc(C(F)(F)F)c5)c4c3c2)cn1` [HTL-7-03, 9-[3-(6-methoxy)pyridyl]-2-oxo-1-[3-(trifluoromethyl)phenyl]-1,2-dihydrobenzo[h][1,6]naphthyridine], in test [1], the “inhibitory activity” value is “excellent inhibitory activity” and the pIC50 is 8.14. The “phosphorylation expression level of Akt” value in test [2] was “significantly down-regulate”.

As to `O=C1Cc2cc(-c3ccc4ncc5ccc(=O)n(-c6cccc(C(F)(F)F)c6)c5c4c3)ccc2N1` [HTL-7-04, 9-[5-(2-oxo)indolyl]-2-oxo-1-[3-(trifluoromethyl)phenyl]-1,2-dihydrobenzo[h][1,6]naphthyridine], in test [1], the “inhibitory activity” value was “moderate inhibitory activity” and the negative-log IC50 (pIC50) was 6.62. For the same molecule, the “phosphorylation expression level of Akt” value in test [2] is given as “significantly down-regulate”.

The molecule `CCCC(=O)Nc1ccc(-c2ccc3ncc4ccc(=O)n(-c5cccc(C(F)(F)F)c5)c4c3c2)cn1` [HTL-7-05, 9-[3-(6-butyrylamino)pyridyl]-2-oxo-1-[3-(trifluoromethyl)phenyl]-1,2-dihydrobenzo[h][1,6]naphthyridine] gave a pIC50 in test [1] of 7.41. Besides, the “phosphorylation expression level of Akt” value in test [2] was “significantly down-regulate”.

These data come from US20220220106A1, “QUINOLINE COMPOUNDS AND PHARMACEUTICAL COMPOSITIONS AND USES THEREOF” (Academy of Military Medical Sciences, priority 2019, published 2022).
